IC50, inhibition in vivo and Activity data for one compound are collected here from ChEMBL document CHEMBL5104164, “Design, synthesis, and biological evaluation of pyrrolopyrimidine derivatives as novel Bruton's tyrosine kinase (BTK) inhibitors” (Eur J Med Chem, 2022).

SMILES strings stand for the structures. Some results are limits rather than exact numbers.

The test system of series [1] is TMD8. The series can be described thus: Antiproliferative activity against human TMD8 cells incubated for 72 hrs by CellTiter-Glo assay. The conditions noted are these: TMD8, 72 h.
The test system of the next series is Rec1. The series can be described thus: Antiproliferative activity against human REC1 cells incubated for 72 hrs by CellTiter-Glo assay. The series is classed as functional, cell-based. The conditions noted are these: Rec1, 72 h. (In general: Cellular ATP, detected with luciferase, serves as a proxy for viable cell number.)
For a further series, the system named is Pfeiffer. The series can be described thus: Antiproliferative activity against human Pfeiffer cells incubated for 72 hrs by CellTiter-Glo assay. The series is classed as functional, cell-based.
The subject of another series is OCI-Ly3. The series can be described thus: Antiproliferative activity against human OCILY3 cells incubated for 72 hrs by CellTiter-Glo assay. It is filed as functional, cell-based. The conditions noted are these: OCI-Ly3, 72 h.
The subject of the next series is SUD4. As to the kind of experiment: Antiproliferative activity against human SU-DHL-4 cells incubated for 72 hrs by CellTiter-Glo assay. It is filed as functional, cell-based. The conditions noted are these: SU-DHL-4, 72 h.
Another series relates to DOHH-2. The series can be described thus: Antiproliferative activity against human DOHH-2 cells incubated for 72 hrs by CellTiter-Glo assay. The settings on record: DOHH-2, 72 h. It is filed as functional, cell-based.
A further series has as its system SU-DHL-6. As to the kind of experiment: Antiproliferative activity against human SU-DHL-6 cells incubated for 72 hrs by CellTiter-Glo assay. It is filed as functional, cell-based. The settings on record: SU-DHL-6, 72 h.
Series [2] can be described thus: Antiproliferative activity against human MINO cells incubated for 72 hrs by CellTiter-Glo assay. It is filed as functional, cell-based.
The test system of a further series is Raji. The series can be described thus: Antiproliferative activity against human Raji cells incubated for 72 hrs by CellTiter-Glo assay. It is filed as functional, cell-based.
For the next series, the system named is Ramos. The series can be described thus: Antiproliferative activity against human Ramos cells incubated for 72 hrs by CellTiter-Glo assay. It is filed as functional, cell-based.
The test system of series [3] is TMD8. As to the kind of experiment: Antitumor activity against human TMD8 cells xenografted in female CB-17 SCID nude mouse assessed as tumor growth inhibition at 25 mg/kg, po administered twice daily for 21 days. It is filed as functional. The settings on record: TMD8, 504 h, time 21 day, read-out: TGI. On the technique in general: A xenograft is tissue or cells of one species grown in another, often human tumour cells in immunodeficient mice.

Series [4] can be described thus: Toxicity in female CB-17 SCID nude mouse xenografted with human TMD8 cells assessed as effect on body weight at 25 mg/kg, po administered twice daily for 21 days. The series is classed as organism-based. The settings on record: in vivo, 504 h, time 21 day.

As for `C=CC(=O)N1CCC[C@@H](n2nc(-c3ccc(Oc4ccccc4)cc3)c3c(N)ncnc32)C1` [IBRUTINIB], the IC50 in the series on TMD8 [1] was 2.7 nM; in the series on Rec1, 0.8 nM; in the series on Pfeiffer, 1650 nM; with OCI-Ly3, over 10000 nM; in the series with SUD4, 804 nM; in the series on DOHH-2, 506 nM. The IC50 in the series with SU-DHL-6 is 1500 nM; in series [2] it was over 10000 nM; in the series with Raji, over 10000 nM; in the series with Ramos, 2090 nM. Further, the inhibition in vivo at 25 mg/kg with TMD8 [3] was 103%. Besides, the Activity entry in series [4] is given as “Non-Toxic”.

A word on the IC50: it is the point on the concentration scale where inhibition reaches its midpoint. Read a low IC50 as higher potency.
